{
  "source": "paper PMC4381553",
  "about": "“Acute and Chronic Toxicity, Cytochrome P450 Enzyme Inhibition, and hERG Channel Blockade Studies with a Polyherbal, Ayurvedic Formulation for Inflammation” (BioMed Research International, 2015)",
  "origin": "cited, not measured here",
  "key": {"[1]": {"system": "CYP3a", "settings": "only at very high dose (200 μg/mL), rat liver microsome"}, "[2]": {"system": "CYP3a", "settings": "only at very high dose (200 μg/mL), human liver microsome"}},
  "note": "Where two headings read alike, the source gives them in different places.",
  "data": [
    {"smiles": "CC1=C(CO)C(=O)O[C@@H]([C@@H](C)[C@H]2CC[C@H]3[C@@H]4CC=C5C[C@@H](O[C@@H]6O[C@H](CO[C@@H]7O[C@H](CO)[C@@H](O)[C@H](O)[C@H]7O)[C@@H](O)[C@H](O)[C@H]6O)C[C@H](O)[C@]5(C)[C@H]4CC[C@]23C)C1", "note": "[Withanoside IV]", "values": [
      {"measurement": "inhibitory activity of CYP3a", "setting": "[1]", "result": "some inhibitory activity"},
      {"measurement": "inhibitory activity of CYP3a", "setting": "[2]", "result": "some inhibitory activity"}
    ]}
  ]
}
